Reference: ChEMBL document CHEMBL3045076, “Influence on Insecticidal Activity of the 3-(3,4-Methylenedioxyphenyl) Group in the 1,4-Benzodioxanyl Moiety of Haedoxan” (1992)
Active and inactive are the calls of the source. The calls are words filed in the database; no cut-off is given here.

Experiments:
Musca domestica [1] = experiment: Insecticidal activity against Musca domestica (house fly) assessed as mortality measured per fly; format: functional
Musca domestica [2] = experiment: Insecticidal activity against Musca domestica (house fly) assessed as increase in mortality; format: functional, organism-based

| SMILES | LD50 (Musca domestica [1]) [µg] | Activity (Musca domestica [2]) |
| --- | --- | --- |
| COC[C@H]1Oc2cc([C@H]3OC[C@]4(O)[C@@H](Oc5c(OC)cc6c(c5OC)OCO6)OC[C@H]34)c(OC)cc2O[C@@H]1c1ccc2c(c1)OCO2 [(+)-HAEDOXAN A] | 0.00025 |  |
| CCCC[C@H]1Oc2cc(OC)c([C@H]3OC[C@]4(O)[C@@H](Oc5c(OC)cccc5OC)OC[C@H]34)cc2O[C@@H]1COC (mixture of isomers) | 1 |  |
| COC[C@H]1Oc2cc([C@H]3OC[C@]4(O)[C@@H](Oc5c(OC)cccc5OC)OC[C@H]34)c(OC)cc2O[C@@H]1C (mixture of isomers) | 1 |  |
| COC[C@H]1Oc2cc([C@H]3OC[C@]4(O)[C@@H](Oc5c(OC)cccc5OC)OC[C@H]34)c(OC)cc2O[C@H]1C (mixture of isomers) |  | inactive |
